Read-outs that look alike come from different tables or passages of the source.
How the values were obtained:
[1] = molecular target: recombinant human IL-17AA (Homo sapiens, UniProt Q16552); assay: IL-6 release from NHDF cells, IL-17AA plus TNF-α stimulation; type: cell-based; details: NHDF cells, 24 hours, IL-6 by ELISA, read-out: IL17AA + TNF IC50 IL-6
Outline: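 IL-17-specific IL-6 release from NHDF cells adhered overnight; compounds pre-incubated 30 min at room temperature with human IL-17AA plus TNF-α, then 24 h on cells at 37° C. Final DMSO 0.1% or plasma 20%; IL-6 by ELISA (450 nm). TNF-α-only IL-6 subtracted before IC50 fit.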

[2] = molecular target: biotinylated human IL-17A / AF647-labeled human IL-17RA (Homo sapiens, UniProt Q16552); assay: Human IL-17A×IL-17RA TR-FRET assay; type: binding
Sequence of biotinylated human IL-17A / AF647-labeled human IL-17RA (Q16552 24-155): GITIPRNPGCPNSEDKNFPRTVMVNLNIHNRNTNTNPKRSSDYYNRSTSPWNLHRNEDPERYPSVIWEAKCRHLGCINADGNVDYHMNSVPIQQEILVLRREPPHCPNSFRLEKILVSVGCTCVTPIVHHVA
Outline: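 Compounds tested in duplicate at each concentration; neutral controls contain all components with DMSO in place of compound.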

[3] = TR-FRET, biotinylated human IL-17A 5 nM, AF647-labeled human IL-17RA 30 nM, read-out: IL17AA FRET/ IL17Rawt IC50
[4] = TR-FRET, 5 nM IL-17A, 30 nM IL-17RA, read-out: IL17AA FRET/ IL17Rawt IC50

Sequence of recombinant human IL-17AA (Q16552 24-155): as above

| IC50 ([1]; IL-17AA 30 pM plus TNF-α 6 pM) | IC50 [2, 3] | IC50 ([1]; IL-17AA 30 pM + TNF-α 6 pM) | IC50 ([2]; IL17AA FRET/ IL17Rawt IC50, TR-FRET, 5 nM IL-17A, 30 nM IL-17RA) | IC50 [2, 4] | SMILES |
| --- | --- | --- | --- | --- | --- |
| 17 nM | 111 nM |  |  |  | Cc1cc[n+]([O-])c(C)c1-c1ccc(NC(=O)C(NC(=O)c2ccc3n2CCN(C)C3)C2CCC(C)CC2)cc1 [Example 121, 2,4-dimethyl-3-(4-((S)-2-(2-methyl-1,2,3,4-tetrahydropyrrolo[1,2-a]pyrazine-6-carboxamido)-2-((1r,4S)-4-methylcyclohexyl)acetamido)phenyl)pyridine 1-oxide] |
| 9 nM | 128 nM |  |  |  | Cc1c(-c2ccc(NC(=O)[C@@H](NC(=O)c3ccc4n3CCN(C)C4)C3CCCCCC3)cc2F)c(Cl)cc[n+]1[O-] [Example 122, 4-chloro-3-(4-((S)-2-cycloheptyl-2-(2-methyl-1,2,3,4-tetrahydropyrrolo[1,2-a]pyrazine-6-carboxamido)acetamido)-2-fluorophenyl)-2-methylpyridine 1-oxide] |
| 59 nM | 150 nM |  |  |  | Cc1c(-c2ccc(NC(=O)[C@@H](NC(=O)c3ccc4n3CCN(C)C4)C3CCC(F)(F)CC3)cc2)c(Cl)cc[n+]1[O-] [Example 123, (S)-4-chloro-3-(4-(2-(4,4-difluorocyclohexyl)-2-(2-methyl-1,2,3,4-tetrahydropyrrolo[1,2-a]pyrazine-6-carboxamido)acetamido)phenyl)-2-methylpyridine 1-oxide] |
| 8 nM | 172 nM |  |  |  | Cc1c(-c2ccc(NC(=O)[C@@H](NC(=O)c3ccc4n3CCN(C)C4)C3CCCCC3)cc2F)c(Cl)cc[n+]1[O-] [Example 124, 4-chloro-3-(4-((S)-2-cyclohexyl-2-(2-methyl-1,2,3,4-tetrahydropyrrolo[1,2-a]pyrazine-6-carboxamido)acetamido)-2-fluorophenyl)-2-methylpyridine 1-oxide] |
| 18 nM | 174 nM |  |  |  | Cc1cc[n+]([O-])c(C)c1-c1ccc(NC(=O)C(NC(=O)c2ccc3n2CCN(C)C3)C2CCC(C(F)(F)F)CC2)cc1 [Example 125, 2,4-dimethyl-3-(4-((S)-2-(2-methyl-1,2,3,4-tetrahydropyrrolo[1,2-a]pyrazine-6-carboxamido)-2-((1r,4S)-4-(trifluoromethyl)cyclohexyl)acetamido)phenyl)pyridine 1-oxide] |
| 62 nM | 228 nM |  |  |  | Cc1c(-c2ccc(NC(=O)[C@@H](NC(=O)c3ccc4n3CCN(C)C4)C3CCCCC3)cc2F)ccc[n+]1[O-] [Example 126, (S)-3-(4-(2-cyclohexyl-2-(2-methyl-1,2,3,4-tetrahydropyrrolo[1,2-a]pyrazine-6-carboxamido)acetamido)-2-fluorophenyl)-2-methylpyridine 1-oxide] |
| 12 nM | 236 nM |  |  |  | Cc1cc[n+]([O-])c(C)c1-c1ccc(NC(=O)[C@@H](NC(=O)c2ccc3n2CCN(C)C3)C2CCCCC2)cc1 [Example 127, (S)-3-(4-(2-cyclohexyl-2-(2-methyl-1,2,3,4-tetrahydropyrrolo[1,2-a]pyrazine-6-carboxamido)acetamido)phenyl)-2,4-dimethylpyridine 1-oxide] |
| 54 nM | 299 nM |  |  |  | Cc1cc[n+]([O-])c(C)c1-c1ccc(NC(=O)[C@@H](NC(=O)c2ccc3n2CCN(C)C3)C2CC=C(F)CC2)cc1 (stereo partly drawn) [Example 128, 3-(4-((2S)-2-(4-fluorocyclohex-3-en-1-yl)-2-(2-methyl-1,2,3,4-tetrahydropyrrolo[1,2-a]pyrazine-6-carboxamido)acetamido)phenyl)-2,4-dimethylpyridine 1-oxide] |
| 956 nM | 124 nM |  |  |  | Cc1cc[n+]([O-])c(C)c1-c1ccc(NC(=O)[C@H](Cc2ccccc2Cl)NC(=O)c2ccc3n2CCN(C)C3)cc1 [Example 130, (S)-3-(4-(3-(2-chlorophenyl)-2-(2-methyl-1,2,3,4-tetrahydropyrrolo[1,2-a]pyrazine-6-carboxamido)propanamido)phenyl)-2,4-dimethylpyridine 1-oxide] |
| 17 nM | 99 nM |  |  |  | Cc1c(-c2ccc(NC(=O)[C@@H](NC(=O)c3ccc4n3CCN(C3COC3)C4)C3CCCCC3)cc2F)c(Cl)cc[n+]1[O-] [Example 133, 4-chloro-3-(4-((S)-2-cyclohexyl-2-(2-(oxetan-3-yl)-1,2,3,4-tetrahydropyrrolo[1,2-a]pyrazine-6-carboxamido)acetamido)-2-fluorophenyl)-2-methylpyridine 1-oxide] |
| 7 nM | 72.8 nM |  |  |  | CC(=O)N1CCn2c(ccc2C(=O)N[C@H](C(=O)Nc2ccc(-c3c(Cl)cc[n+]([O-])c3C)c(F)c2)C2CCCCCC2)C1 [Example 134, 3-(4-((S)-2-(2-acetyl-1,2,3,4-tetrahydropyrrolo[1,2-a]pyrazine-6-carboxamido)-2-cycloheptylacetamido)-2-fluorophenyl)-4-chloro-2-methylpyridine 1-oxide] |
|  |  | 193 nM | 513 nM |  | Cc1cc[n+]([O-])c(C)c1-c1ccc(NC(=O)C(NC(=O)c2ccnn2C)C2CCCC(F)(F)C2)cc1 (stereo not drawn) [Example 147, 3-(4-(2-(3,3-difluorocyclohexyl)-2-(1-methyl-1H-pyrazole-5-carboxamido)acetamido)phenyl)-2,4-dimethylpyridine 1-oxide] |
|  |  | 131 nM |  | 125 nM | Cc1cc[n+]([O-])c(C)c1-c1ccc(NC(=O)[C@@H](NC(=O)c2ccnn2C)C2CCCCCC2)nc1 [Example 148, (S)-6′-(2-cycloheptyl-2-(1-methyl-1H-pyrazole-5-carboxamido)acetamido)-2,4-dimethyl-[3,3′-bipyridine] 1-oxide] |
|  |  | 59 nM |  | 118 nM | Cc1cc[n+]([O-])c(C)c1-c1ccc(NC(=O)[C@@H](NC(=O)c2ccc3n2CCN(C)C3)C2CCCCCC2)nc1 [Example 149, (S)-6′-(2-cycloheptyl-2-(2-methyl-1,2,3,4-tetrahydropyrrolo[1,2-a]pyrazine-6-carboxamido)acetamido)-2,4-dimethyl-[3,3′-bipyridine] 1-oxide] |
|  |  | 57 nM |  | 260 nM | Cc1cc[n+]([O-])c(C)c1-c1ccc(NC(=O)[C@@H](NC(=O)c2ccc3n2CCN(C)C3)C2CCC(F)(F)CC2)cc1 [Example 151, (S)-3-(4-(2-(4,4-difluorocyclohexyl)-2-(2-methyl-1,2,3,4-tetrahydropyrrolo[1,2-a]pyrazine-6-carboxamido)acetamido)phenyl)-2,4-dimethylpyridine 1-oxide] |
|  |  | 51.5 nM |  | 110 nM | Cc1cc[n+]([O-])c(C)c1-c1ccc(NC(=O)C(NC(=O)c2ccnn2C)C2CCCCC(F)(F)C2)cc1 (stereo not drawn) [Example 156, 3-(4-(2-(3,3-difluorocycloheptyl)-2-(1-methyl-1H-pyrazole-5-carboxamido)acetamido)phenyl)-2,4-dimethylpyridine 1-oxide] |
|  |  | 105 nM |  | 170 nM | Cc1cc[n+]([O-])c(C)c1-c1ccc(NC(=O)[C@@H](NC(=O)c2cn[nH]c2C(C)C)C2CCCCC2)cc1 [Example 157, (S)-3-(4-(2-cyclohexyl-2-(5-isopropyl-1H-pyrazole-4-carboxamido)acetamido)phenyl)-2,4-dimethylpyridine 1-oxide] |
|  |  | 15.5 nM |  | < 6.1 nM | Cc1c(-c2ccc(NC(=O)C(NC(=O)c3ccnn3C(C)C)C3CCCC(F)(F)C3)cc2)c(Cl)cc[n+]1[O-] (stereo not drawn) [Example 158, 4-chloro-3-(4-(2-(3,3-difluorocyclohexyl)-2-(1-isopropyl-1H-pyrazole-5-carboxamido)acetamido)phenyl)-2-methylpyridine 1-oxide] |

— patent publication US12600728B2, “Interleukin-17 inhibitors” (priority 2020, dated 2026)
